Patent publication US11149018B2, “Substituted N-arylethyl-2-aminoquinoline-4-carboxamides and use thereof” (Bayer Aktiengesellschaft, priority 2017, dated 2021)

Target: FP receptor (Homo sapiens (Human), UniProt P43088)
Assay: In vitro test of inhibition of human FP receptor activity (PGF2α-induced calcium flux in FP-expressing CHEM1 cells)
Assay type: cell-based
Conditions: PGF2α 2 nM, some mean values of multiple determinations
Procedure: B-1. In Vitro Test of Inhibition of Human FP Receptor Activity
For the characterization of test substances in respect of FP antagonism, PGF2α-induced calcium flux in FP-expressing CHEM1 cells (Millipore, HTS093C) was used.
10 μl of the prediluted substance solution are added to the Fluo-8-laden cells and incubated at 37° C., 5% CO2 for 10 minutes. The FP receptor is activated by adding 40 μl of 2 nM (final concentration) PGF2α in calcium-free Tyrode, 2 mM CaCl2, 0.002% SmartBlock, and the calcium flux is determined by measuring the fluorescence at ex. 470 nm/[…].
Table 1 below lists the IC50 values from this assay for individual working examples of the invention (some as mean values from multiple independent individual determinations): […]

Chain of FP receptor (P43088 whole entry): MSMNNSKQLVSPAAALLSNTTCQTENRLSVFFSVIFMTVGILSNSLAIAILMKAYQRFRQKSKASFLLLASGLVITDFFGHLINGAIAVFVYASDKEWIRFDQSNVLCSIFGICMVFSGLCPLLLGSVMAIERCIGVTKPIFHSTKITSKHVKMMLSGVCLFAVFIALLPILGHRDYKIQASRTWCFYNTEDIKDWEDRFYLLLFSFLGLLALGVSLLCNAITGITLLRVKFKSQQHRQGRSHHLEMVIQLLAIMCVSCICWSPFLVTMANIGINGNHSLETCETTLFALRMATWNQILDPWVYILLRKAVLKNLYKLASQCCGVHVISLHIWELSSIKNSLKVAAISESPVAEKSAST

Structure (SMILES) | IC50 [µM]
Cc1c(NCCc2ccccc2)nc2ccc(Br)cc2c1C(=O)NCC(CC(=O)O)c1c(F)cccc1Cl (racemic) [Example 4, (+/−)-4-[({6-Bromo-3-methyl-2-[(2-phenylethyl)amino]quinolin-4-yl}carbonyl)amino]-3-(2-chloro-6-fluorophenyl)butanoic acid] | 0.17
Cc1c(N2CCC(F)(F)CC2)nc2ccc(Br)cc2c1C(=O)NCC(CCC(=O)O)c1cc(F)ccc1Cl (racemic) [Example 8, (+/−)-5-({[6-Bromo-2-(4,4-difluoropiperidin-1-yl)-3-methylquinolin-4-yl]carbonyl}amino)-4-(2-chloro-5-fluorophenyl)pentanoic acid] | 0.058
Cc1c(N2CCOCC2)nc2ccc(Br)cc2c1C(=O)NCC(CCC(=O)O)c1cc(F)ccc1Cl (racemic) [Example 9, (+/−)-5-({[6-Bromo-3-methyl-2-(morpholin-4-yl)quinolin-4-yl]carbonyl}amino)-4-(2-chloro-5-fluorophenyl)pentanoic acid] | 0.29
Cc1c(N2C[C@@H](C)O[C@@H](C)C2)nc2ccc(Br)cc2c1C(=O)NCC(CCC(=O)O)c1cc(F)ccc1Cl (mixture of isomers) [Example 12, (+/−)-5-[({6-Bromo-2-[cis-2,6-dimethylmorpholin-4-yl]-3-methylquinolin-4-yl}carbonyl)amino]-4-(2-chloro-5-fluorophenyl)pentanoic acid] | 0.22
Cc1c(N2CCCC2)nc2ccc(Br)cc2c1C(=O)NCC(CCC(=O)O)c1cc(F)ccc1Cl (racemic) [Example 13, (+/−)-5-({[6-Bromo-3-methyl-2-(pyrrolidin-1-yl)quinolin-4-yl]carbonyl}amino)-4-(2-chloro-5-fluorophenyl)pentanoic acid] | 0.018
Cc1c(N2CC=CC2)nc2ccc(Br)cc2c1C(=O)NCC(CCC(=O)O)c1cc(F)ccc1Cl (racemic) [Example 15, (+/−)-5-({[6-Bromo-2-(2,5-dihydro-1H-pyrrol-1-yl)-3-methylquinolin-4-yl]carbonyl}amino)-4-(2-chloro-5-fluorophenyl)pentanoic acid] | 0.048

More lines, in order of falling IC50, values ahead:

IC50 [µM] | Structure (SMILES)
0.08 | Cc1c(N2CCC(C)CC2)nc2ccc(Br)cc2c1C(=O)NCC(CCC(=O)O)c1cc(F)ccc1Cl (racemic) [Example 18, (+/−)-5-({[6-Bromo-3-methyl-2-(4-methylpiperidin-1-yl)quinolin-4-yl]carbonyl}amino)-4-(2-chloro-5-fluorophenyl)pentanoic acid]
0.07 | Cc1c(N2CCCO2)nc2ccc(Br)cc2c1C(=O)NCC(CCC(=O)O)c1cc(F)ccc1Cl (racemic) [Example 14, (+/−)-5-({[6-Bromo-3-methyl-2-(1,2-oxazolidin-2-yl)quinolin-4-yl]carbonyl}amino)-4-(2-chloro-5-fluorophenyl)pentanoic acid]
0.036 | Cc1c(N2CC=CCC2)nc2ccc(Br)cc2c1C(=O)NCC(CCC(=O)O)c1cc(F)ccc1Cl (racemic) [Example 10, (+/−)-5-({[6-Bromo-2-(3,6-dihydropyridin-1(2H)-yl)-3-methylquinolin-4-yl]carbonyl}amino)-4-(2-chloro-5-fluorophenyl)pentanoic acid]
0.026 | Cc1c(N2CCCCC2)nc2ccc(Br)cc2c1C(=O)NCC(CC(=O)O)c1c(F)cccc1Cl (racemic) [Example 1, (+/−)-4-({[6-Bromo-3-methyl-2-(piperidin-1-yl)quinolin-4-yl]carbonyl}amino)-3-(2-chloro-6-fluorophenyl)butanoic acid]
0.025 | Cc1c(N2CCSCC2)nc2ccc(Br)cc2c1C(=O)NCC(CCC(=O)O)c1cc(F)ccc1Cl (racemic) [Example 11, (+/−)-5-({[6-Bromo-3-methyl-2-(thiomorpholin-4-yl)quinolin-4-yl]carbonyl}amino)-4-(2-chloro-5-fluorophenyl)pentanoic acid]
0.0094 | Cc1c(N2CCCCC2)nc2ccc(Br)cc2c1C(=O)NCC(CCC(=O)O)c1cc(F)ccc1Cl (racemic) [Example 5, (+/−)-5-({[6-Bromo-3-methyl-2-(piperidin-1-yl)quinolin-4-yl]carbonyl}amino)-4-(2-chloro-5-fluorophenyl)pentanoic acid]
